Measured values from patent US20210196607A1 (HESED BIO CO., LTD., priority 2017, published 2021).

Assays:
[1] = biological target: T1, ERα ligand-binding domain (Homo sapiens, UniProt P03372); experiment: Estrogen receptor reporter (GAL4 luciferase) experiment; assay type: cell-based
T1 construct: expressed in transfected cells; host or cells: HEK 293A cells
Experimental: To deliver a DNA plasmid into HEK 293A cells, a microporator (Invitrogen/Neon® Transfection System) was used. At one time, 1 μg of a reporter plasmid was delivered into 1 million cells. The DNA-delivered cells were cultured in a general culture medium. The activities of Renilla and Firefly luciferases were measured using a Dual-Luciferase® Reporter Assay System (Promega). To measure the activity of an estrogen receptor (ER) reporter, a system, in which, when a specific material binds to the ER ligand domain, GAL4 binds to a specific DNA sequence, resulting in expression of the Firefly luciferase, was used, and the Renilla luciferase was delivered together to calibrate DNA transfer efficiency. The activity of the estrogen receptor reporter was determined by dividing a value of the Firefly luciferase by a value of the Renilla luciferase. […] When HEK 293A cells to which reporter DNAs were delivered were treated with 50 μM of the extract, the expression of the luciferases was nearly 3.5 times higher than that of the control (see FIG. 5B).

[2] = test system: cells; experiment: Cytotoxicity experiment (MTT experiment); assay type: cell-based
Experimental: 1-1: Cell Culture HEK 293A and B16F10 cells used, Dulbecco's Modified Eagle's Medium (DMEM) containing 10% fetal bovine serum and 1% penicillin/streptomycin as a nutrient source, and were incubated in an incubator maintained at 37° C. under 5% CO2.
This is an experiment for measuring the number of living cells through conversion of 3-(4,5-dimethyl-thiazol-2-yl)-2,5-diphenyl tetrazolium bromide (MTT) into formazan with a purple color, by reduction in cells. Cells were seeded into a 96-well cell culture plate at a density of 3×10^3. […] Thereafter, the culture medium was removed, and a solvent for dissolving crystallized formazan was added to dissolve the sample, and the absorbance at 570 nm of the dissolved sample was measured.

[3] = test system: tyrosinase; experiment: Tyrosinase protein and mRNA amount in MSH-treated B16F10 cells; assay type: cell-based, mouse
Source text: Antibodies were purchased from respective manufacturers. Tyrosinase, 14-3-3ζ, LAMIN B (Santa Cruz), MITF (Abcam), phospho-MITF (Sigma), ERK, phospho-ERK (Cell Signaling), ACTIN (MPBIO), and GAPDH (Bethyl) were used.
(§1) Total RNA was extracted from each group of cells using a TRI reagent (Molecular Research Center). Extracted RNA was reverse transcribed using an ImProm™ Reverse Transcription System (Promega), followed by measurement using a StepOnePlus™ Real-Time PCR System (Applied Biosystems).

[4] = test system: B16F10 mouse melanoma cells; experiment: Measuring amount of melanin; assay type: cell-based
Experimental: B16F10 mouse melanoma cells were seeded into a 6-well cell culture plate at a density of 1×10^5/well. […] The obtained cells were disrupted and then centrifuged to obtain a cell precipitate, and 1 N NaOH containing 10% DMSO was added thereto. Thereafter, the resulting precipitate was allowed to react at 60° C. for 1 hour, and absorbance at 405 nm was measured.

[5] = test system: estrogen receptor signaling pathway; experiment: mRNA of estrogen receptor target genes; assay type: cell-based; details: HEK 293A cells (FIG. 5D)
Source text: as §1

[6] = test system: heat shock protein 70 (HSP70); experiment: Expression of heat shock protein 70 under heat stress; assay type: cell-based, mouse; details: B16F10 cells
Experimental: Total protein was extracted from the cells using a THE buffer, and then the amount thereof was measured using a Bradford reagent. In addition, proteins were separated by SDS-PAGE and identified using antibodies, followed by quantitative analysis. Antibodies were purchased from respective manufacturers, and HSP70 (Santa Cruz) and actin (MPBIO) were used.
as §1

[7] = biological target: T2, tyrosinase (Mus musculus, UniProt P11344); experiment: Degree of tyrosinase activity at cellular level; assay type: cell-based; details: B16F10 cells
T2 construct: The obtained cells were disrupted and then centrifuged to separate a supernatant; endogenous in cells; host or cells: B16F10 mouse melanoma cells, stimulated with melanocyte stimulating hormone
T2 sequence (P11344 19-533): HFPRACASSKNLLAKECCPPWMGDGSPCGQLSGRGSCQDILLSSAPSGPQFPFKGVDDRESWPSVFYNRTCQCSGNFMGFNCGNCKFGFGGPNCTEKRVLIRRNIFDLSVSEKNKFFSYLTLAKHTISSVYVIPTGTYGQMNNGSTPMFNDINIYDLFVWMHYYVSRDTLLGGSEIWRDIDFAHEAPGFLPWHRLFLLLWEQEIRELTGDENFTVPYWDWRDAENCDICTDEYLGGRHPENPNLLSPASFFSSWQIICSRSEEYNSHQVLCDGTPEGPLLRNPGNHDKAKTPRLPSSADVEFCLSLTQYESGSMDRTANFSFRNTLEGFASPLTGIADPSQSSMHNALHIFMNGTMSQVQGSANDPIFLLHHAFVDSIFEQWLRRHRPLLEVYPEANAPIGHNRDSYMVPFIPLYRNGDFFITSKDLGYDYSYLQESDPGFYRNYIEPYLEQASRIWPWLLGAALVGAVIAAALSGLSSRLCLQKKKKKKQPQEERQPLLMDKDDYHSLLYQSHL
Experimental: B16F10 mouse melanoma cells were seeded into a 6-well cell culture plate at a density of 1×10^5/well. […] The obtained cells were disrupted and then centrifuged to separate a supernatant. The protein concentration of the supernatant was measured, and 50 μg of protein per sample was standardized into a volume of 50 μl and placed on a 96-well plate. Then, 100 μl of 0.1% L-DOPA was added as a reaction substrate to each sample and allowed to react at 37° C. for 1 hour, and then absorbance at 475 nm was measured.

[8] = 100 nM melanocyte stimulating hormone for 48 hours
[9] = increasing amount of 8-methoxybutin (FIG. 2D)

T1 sequence (P03372 311-547 limits assumed): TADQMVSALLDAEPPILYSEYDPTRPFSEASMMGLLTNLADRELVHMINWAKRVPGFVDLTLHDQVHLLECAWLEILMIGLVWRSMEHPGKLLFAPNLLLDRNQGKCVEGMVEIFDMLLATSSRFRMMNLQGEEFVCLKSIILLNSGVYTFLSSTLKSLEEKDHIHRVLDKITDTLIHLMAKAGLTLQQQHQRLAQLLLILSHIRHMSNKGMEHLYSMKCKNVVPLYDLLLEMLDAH
T1 sequence (P04386 1-147 partner limits assumed): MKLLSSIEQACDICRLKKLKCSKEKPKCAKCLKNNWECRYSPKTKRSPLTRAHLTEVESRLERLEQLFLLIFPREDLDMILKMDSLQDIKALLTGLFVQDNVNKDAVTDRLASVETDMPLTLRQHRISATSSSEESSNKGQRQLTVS

COc1c(O)ccc2c1OC(c1ccc(O)c(O)c1)CC2=O (centres unmarked) [8-methoxybutin, 2-(3,4-dihydroxyphenyl)-7-hydroxy-8-methoxy-2,3-dihydro-4H-1-benzopyran-4-one]
expression of the luciferases relative to the control ([1]; HEK 293A cells with reporter DNAs, 50 μM (FIG. 5B)): ~3.5 times | expression of luciferases depending on concentration ([1]; HEK 293A cells, concentration increased from 10 μM (FIG. 5C)): statistically significant increase | cell survival rate ([2]; 24 hours treatment, high as well as low concentration): about 100% | cytotoxicity ([2]; high concentration, 100 μM): cytotoxicity was hardly observed | amount of tyrosinase protein ([3]; B16F10 cells treated with melanocyte stimulating hormone (FIG. 2B)): remarkable decrease | tyrosinase mRNA level ([3]; B16F10 cells treated with melanocyte stimulating hormone (FIG. 2C)): confirmed at an mRNA level | amount of tyrosinase protein with increasing amount of compound ([3]; B16F10 cells, increasing amount of 8-methoxybutin (FIG. 2E)): reduced in proportion to the amount of 8-methoxybutin | decrease in melanin synthesis amount [4, 8]: ≥ 50% | melanin synthesis with increasing amount of compound [4, 9]: in proportion to the amount of 8-methoxybutin | amount of mRNA of target genes [5]: increased | amount of heat shock protein 70 mRNA compared to the control ([6]; heat stress (FIG. 3B)): larger amount | amount of heat shock protein 70 (HSP70) compared to a control ([6]; heat-applied condition 42° C. for 1 hour, DMSO control (FIG. 3A)): increased at least three times | decrease in tyrosinase activity [7, 8]: ≥ 110% | tyrosinase activity with increasing amount of compound [7, 9]: in proportion to the amount of 8-methoxybutin
